Data published in ChEMBL document CHEMBL3400114, “The design, synthesis and biological evaluation of conformationally restricted 4-substituted-2,6-dimethylfuro[2,3-d]pyrimidines as multi-targeted receptor tyrosine kinase and microtubule inhibitors as potential antitumor agents” (Bioorg Med Chem, 2015).
pIC50: −log10 of the molar value.

Key:
[1] = Antiproliferative activity against human SKOV3-MDR1-M6/6 cells overexpressing wild type beta3 tubulin after 48 hrs by sulforhodamine B assay; assay type: functional, cell-based; settings: SKOV3-MDR1-M6/6, 48 h
HT-29 = assay: Growth inhibition of human HT-29 cells after 48 hrs by sulforhodamine B assay; assay type: functional; settings: HT-29, 48 h
HOP-62 = assay: Growth inhibition of human HOP62 cells after 48 hrs by sulforhodamine B assay; assay type: functional; settings: HOP-62, 48 h
M14 = assay: Growth inhibition of human M14 cells after 48 hrs by sulforhodamine B assay; assay type: functional; settings: M14, 48 h
[2] = Growth inhibition of human HCT15 cells after 48 hrs by sulforhodamine B assay; assay type: functional; settings: HCT-15, 48 h
[3] = Growth inhibition of human OVCAR4 cells after 48 hrs by sulforhodamine B assay; assay type: functional; settings: OVCAR-4, 48 h
IGROV-1 = assay: Growth inhibition of human IGROV1 cells after 48 hrs by sulforhodamine B assay; assay type: functional; settings: IGROV-1, 48 h
[4] = Growth inhibition of human OVCAR5 cells after 48 hrs by sulforhodamine B assay; assay type: functional; settings: OVCAR-5, 48 h
[5] = Growth inhibition of human SF295 cells after 48 hrs by sulforhodamine B assay; assay type: functional; settings: SF-295, 48 h
786-0 = assay: Growth inhibition of human 786-0 cells after 48 hrs by sulforhodamine B assay; assay type: functional; settings: 786-0, 48 h
SK-MEL-2 = assay: Growth inhibition of human SK-MEL-2 cells after 48 hrs by sulforhodamine B assay; assay type: functional; settings: SK-MEL-2, 48 h
[6] = Growth inhibition of human HCC2998 cells after 48 hrs by sulforhodamine B assay; assay type: functional; settings: HCC 2998, 48 h
[7] = Growth inhibition of human Hs 578T cells after 48 hrs by sulforhodamine B assay; assay type: functional
SK-MEL-5 = assay: Growth inhibition of human SK-MEL-5 cells after 48 hrs by sulforhodamine B assay; assay type: functional; settings: SK-MEL-5, 48 h
[8] = Antiproliferative activity against human SKOV3 cells overexpressing wild type beta3 tubulin after 48 hrs by sulforhodamine B assay; assay type: functional, cell-based; settings: SK-OV-3, 48 h
[9] = Growth inhibition of human SF539 cells after 48 hrs by sulforhodamine B assay; assay type: functional; settings: SF-539, 48 h
SNB-19 = assay: Growth inhibition of human SNB19 cells after 48 hrs by sulforhodamine B assay; assay type: functional; settings: SNB-19, 48 h
[10] = Growth inhibition of human UACC62 cells after 48 hrs by sulforhodamine B assay; assay type: functional; settings: UACC-62, 48 h
MDA-MB-435 = assay: Growth inhibition of human MDA-MB-435 cells after 48 hrs by sulforhodamine B assay; assay type: functional; settings: MDA-MB-435, 48 h
MDA-MB-468 = assay: Growth inhibition of human MDA-MB-468 cells after 48 hrs by sulforhodamine B assay; assay type: functional; settings: MDA-MB-468, 48 h
A498 = assay: Growth inhibition of human A498 cells after 48 hrs by sulforhodamine B assay; assay type: functional; settings: A498, 48 h
[11] = Growth inhibition of human EKVX cells after 48 hrs by sulforhodamine B assay; assay type: functional
[12] = Growth inhibition of human HOP92 cells after 48 hrs by sulforhodamine B assay; assay type: functional; settings: HOP-92, 48 h
NCI-H23 = assay: Growth inhibition of human NCI-H23 cells after 48 hrs by sulforhodamine B assay; assay type: functional; settings: NCI-H23, 48 h
SK-OV-3 = assay: Growth inhibition of human SKOV3 cells after 48 hrs by sulforhodamine B assay; assay type: functional; settings: SK-OV-3, 48 h
[13] = Growth inhibition of human OVCAR3 cells after 48 hrs by sulforhodamine B assay; assay type: functional; settings: OVCAR-3, 48 h
SW-620 = assay: Growth inhibition of human SW620 cells after 48 hrs by sulforhodamine B assay; assay type: functional; settings: SW-620, 48 h
[14] = Growth inhibition of human UO31 cells after 48 hrs by sulforhodamine B assay; assay type: functional; settings: UO-31, 48 h
A549 = assay: Growth inhibition of human A549 cells after 48 hrs by sulforhodamine B assay; assay type: functional; settings: A549, 48 h
NCI-H460 = assay: Growth inhibition of human NCI-H460 cells after 48 hrs by sulforhodamine B assay; assay type: functional; settings: NCI-H460, 48 h
NCI-H226 = assay: Growth inhibition of human NCI-H226 cells after 48 hrs by sulforhodamine B assay; assay type: functional; settings: NCI-H226, 48 h
ACHN = assay: Growth inhibition of human ACHN cells after 48 hrs by sulforhodamine B assay; assay type: functional
[15] = Growth inhibition of human HCT116 cells after 48 hrs by sulforhodamine B assay; assay type: functional; settings: HCT-116, 48 h
KM12 = assay: Growth inhibition of human KM12 cells after 48 hrs by sulforhodamine B assay; assay type: functional; settings: KM12, 48 h
[16] = Growth inhibition of human PC3 cells after 48 hrs by sulforhodamine B assay; assay type: functional; settings: PC-3, 48 h
Tubulin (Bos taurus) = Tubulin (Bos taurus) (UniProt Q6B856+Q862L2+Q862F3); assay: Displacement of [3H]colchicine from bovine brain tubulin assembly at 5 uM
SK-MEL-28 = assay: Growth inhibition of human SK-MEL-28 cells after 48 hrs by sulforhodamine B assay; assay type: functional; settings: SK-MEL-28, 48 h
[17] = Antiangiogenic activity in VEGF-165 and bFGF-stimulated chicken embryo chorioallantoic membrane assessed as inhibition of blood vessel formation after 40 hrs by microscopy; assay type: functional, tissue-based, Gallus gallus
CCRF-CEM = assay: Growth inhibition of human CCRF-CEM cells after 48 hrs by sulforhodamine B assay; assay type: functional
[18] = Growth inhibition of human BT549 cells after 48 hrs by sulforhodamine B assay; assay type: functional; settings: BT-549, 48 h
[19] = Growth inhibition of human OVCAR8 cells after 48 hrs by sulforhodamine B assay; assay type: functional; settings: OVCAR-8, 48 h
TK-10 = assay: Growth inhibition of human TK10 cells after 48 hrs by sulforhodamine B assay; assay type: functional; settings: TK-10, 48 h
NCI-H322M = assay: Growth inhibition of human NCI-H322M cells after 48 hrs by sulforhodamine B assay; assay type: functional
HeLa = assay: Antiproliferative activity against human HeLa cells overexpressing wild type beta3 tubulin after 48 hrs by sulforhodamine B assay; assay type: functional, cell-based
DU-145 = assay: Growth inhibition of human DU145 cells after 48 hrs by sulforhodamine B assay; assay type: functional; settings: DU-145, 48 h
MDA-MB-231 = assay: Growth inhibition of human MDA-MB-231 cells after 48 hrs by sulforhodamine B assay; assay type: functional; settings: MDA-MB-231, 48 h
NCI-H522 = assay: Growth inhibition of human NCI-H522 cells after 48 hrs by sulforhodamine B assay; assay type: functional; settings: NCI-H522, 48 h
[20] = Growth inhibition of human LOXIMVI cells after 48 hrs by sulforhodamine B assay; assay type: functional; settings: LOX IMVI
MCF7 = assay: Growth inhibition of human MCF7 cells after 48 hrs by sulforhodamine B assay; assay type: functional; settings: MCF7, 48 h
NCI/ADR-RES = assay: Growth inhibition of human NCI/ADR-RES cells after 48 hrs by sulforhodamine B assay; assay type: functional

Q: With COc1ccc2c(c1)CCCN2c1nc(C)nc2oc(C)cc12 as the compound, how does the pIC50 [1] read?
A: 7.71

Q: What about the GI50 (HT-29) of the same compound?
A: < 10 nM

Q: And the GI50 (HOP-62)?
A: < 10 nM

Q: And the GI50 (M14)?
A: < 10 nM

Q: What about the GI50 [2] of the same compound?
A: < 10 nM

Q: What about the GI50 [3] of the same compound?
A: 51 nM

Q: And the GI50 (IGROV-1)?
A: < 10 nM

Q: What about the GI50 [4] of the same compound?
A: 43 nM

Q: What about the GI50 [5] of the same compound?
A: < 10 nM

Q: What about the GI50 (786-0) of the same compound?
A: < 10 nM

Q: What about the GI50 (SK-MEL-2) of the same compound?
A: < 10 nM

Q: What about the GI50 [6] of the same compound?
A: 12 nM

Q: And the GI50 [7]?
A: < 10 nM

Q: And the GI50 (SK-MEL-5)?
A: < 10 nM

Q: What about the pIC50 [8] of the same compound?
A: 7.89

Q: And the GI50 [9]?
A: < 10 nM

Q: What about the GI50 (SNB-19) of the same compound?
A: < 10 nM

Q: And the GI50 [10]?
A: < 10 nM

Q: What about the GI50 (MDA-MB-435) of the same compound?
A: < 10 nM

Q: And the GI50 (MDA-MB-468)?
A: < 10 nM

Q: And the GI50 (A498)?
A: < 10 nM

Q: And the GI50 [11]?
A: < 10 nM

Q: And the GI50 [12]?
A: 58.6 nM

Q: What about the GI50 (NCI-H23) of the same compound?
A: < 10 nM

Q: What about the GI50 (SK-OV-3) of the same compound?
A: < 10 nM

Q: What about the GI50 [13] of the same compound?
A: < 10 nM

Q: What about the GI50 (SW-620) of the same compound?
A: < 10 nM

Q: What about the GI50 [14] of the same compound?
A: < 10 nM

Q: And the GI50 (A549)?
A: < 10 nM

Q: What about the GI50 (NCI-H460) of the same compound?
A: < 10 nM

Q: And the GI50 (NCI-H226)?
A: 13 nM

Q: What about the GI50 (ACHN) of the same compound?
A: < 10 nM

Q: What about the GI50 [15] of the same compound?
A: < 10 nM

Q: And the GI50 (KM12)?
A: < 10 nM

Q: And the GI50 [16]?
A: < 10 nM

Q: And the inhibition (Tubulin (Bos taurus))?
A: 96%

Q: What about the GI50 (SK-MEL-28) of the same compound?
A: < 10 nM

Q: And the pIC50 [17]?
A: 3.98

Q: What about the GI50 (CCRF-CEM) of the same compound?
A: < 10 nM

Q: What about the GI50 [18] of the same compound?
A: < 10 nM

Q: What about the GI50 [19] of the same compound?
A: < 10 nM

Q: And the GI50 (TK-10)?
A: < 10 nM

Q: And the GI50 (NCI-H322M)?
A: < 10 nM

Q: And the pIC50 (HeLa)?
A: 8.04

Q: And the GI50 (DU-145)?
A: < 10 nM

Q: And the GI50 (MDA-MB-231)?
A: 11.4 nM

Q: And the GI50 (NCI-H522)?
A: < 10 nM

Q: What about the GI50 [20] of the same compound?
A: < 10 nM

Q: What about the GI50 (MCF7) of the same compound?
A: < 10 nM

Q: What about the GI50 (NCI/ADR-RES) of the same compound?
A: < 10 nM
